Each block holds one molecule with its values, some of them ahead of it.
Tests used:
[1] = test system: SF-268; assay: Growth inhibition of human SF268 cells at 10 uM incubated for 48 hrs by sulforhodamine B assay relative to control; type: functional; settings: SF-268, 48 h, read-out: GI
[2] = test system: IGROV-1; assay: Growth inhibition of human IGROV1 cells at 10 uM incubated for 48 hrs by sulforhodamine B assay relative to control; type: functional; settings: IGROV-1, 48 h, read-out: GI
[3] = target: Carbonic anhydrase 1 (Homo sapiens, UniProt P00915); assay: Inhibition of recombinant human carbonic anhydrase 1 preincubated for 15 mins by phenol red dye based stopped flow CO2 hydration assay
Carbonic anhydrase 1, sequence (P00915 whole entry): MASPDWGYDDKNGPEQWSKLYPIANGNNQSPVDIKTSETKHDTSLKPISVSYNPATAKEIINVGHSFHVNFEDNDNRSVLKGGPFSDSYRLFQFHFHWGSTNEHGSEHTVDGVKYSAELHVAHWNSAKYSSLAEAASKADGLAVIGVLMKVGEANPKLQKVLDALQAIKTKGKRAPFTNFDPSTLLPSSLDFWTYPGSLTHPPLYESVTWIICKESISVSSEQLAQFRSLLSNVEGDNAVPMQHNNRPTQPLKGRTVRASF

[4] = test system: SNB-19; assay: Growth inhibition of human SNB19 cells at 10 uM incubated for 48 hrs by sulforhodamine B assay relative to control; type: functional; settings: SNB-19, 48 h, read-out: GI
[5] = test system: RXF 393; assay: Growth inhibition of human RXF393 cells at 10 uM incubated for 48 hrs by sulforhodamine B assay relative to control; type: functional; settings: RXF 393, 48 h, read-out: GI
[6] = test system: A498; assay: Growth inhibition of human A498 cells at 10 uM incubated for 48 hrs by sulforhodamine B assay relative to control; type: functional; settings: A498, 48 h, read-out: GI
[7] = test system: A549; assay: Growth inhibition of human A549/ATCC cells at 10 uM incubated for 48 hrs by sulforhodamine B assay relative to control; type: functional; settings: A549, 48 h, read-out: GI
[8] = test system: MDA-MB-435; assay: Growth inhibition of human MDA-MB-435 cells at 10 uM incubated for 48 hrs by sulforhodamine B assay relative to control; type: functional; settings: MDA-MB-435, 48 h, read-out: GI
[9] = test system: UACC-62; assay: Growth inhibition of human UACC62 cells at 10 uM incubated for 48 hrs by sulforhodamine B assay relative to control; type: functional; settings: UACC-62, 48 h, read-out: GI
[10] = test system: MDA-MB-468; assay: Growth inhibition of human MDA-MB-468 cells at 10 uM incubated for 48 hrs by sulforhodamine B assay relative to control; type: functional; settings: MDA-MB-468, 48 h, read-out: GI
[11] = test system: 786-0; assay: Growth inhibition of human 786-0 cells at 10 uM incubated for 48 hrs by sulforhodamine B assay relative to control; type: functional; settings: 786-0, 48 h, read-out: GI
[12] = test system: MDA-MB-231; assay: Growth inhibition of human MDA-MB-231 cells at 10 uM incubated for 48 hrs by sulforhodamine B assay relative to control; type: functional; settings: MDA-MB-231, 48 h, read-out: GI
[13] = test system: OVCAR-3; assay: Growth inhibition of human OVCAR3 cells at 10 uM incubated for 48 hrs by sulforhodamine B assay relative to control; type: functional; settings: OVCAR-3, 48 h, read-out: GI
[14] = test system: T47D; assay: Growth inhibition of human T47D cells at 10 uM incubated for 48 hrs by sulforhodamine B assay relative to control; type: functional; settings: read-out: GI
[15] = test system: BT-549; assay: Growth inhibition of human BT549 cells at 10 uM incubated for 48 hrs by sulforhodamine B assay relative to control; type: functional; settings: BT-549, 48 h, read-out: GI
[16] = test system: PC-3; assay: Growth inhibition of human PC3 cells at 10 uM incubated for 48 hrs by sulforhodamine B assay relative to control; type: functional; settings: PC-3, 48 h, read-out: GI
[17] = test system: LOX IMVI; assay: Growth inhibition of human LOXIMVI cells at 10 uM incubated for 48 hrs by sulforhodamine B assay relative to control; type: functional; settings: read-out: GI
[18] = test system: NCI-H23; assay: Growth inhibition of human NCI-H23 cells at 10 uM incubated for 48 hrs by sulforhodamine B assay relative to control; type: functional; settings: NCI-H23, 48 h, read-out: GI
[19] = test system: EKVX; assay: Growth inhibition of human EKVX cells at 10 uM incubated for 48 hrs by sulforhodamine B assay relative to control; type: functional; settings: read-out: GI
[20] = test system: SK-MEL-2; assay: Growth inhibition of human SK-MEL-2 cells at 10 uM incubated for 48 hrs by sulforhodamine B assay relative to control; type: functional; settings: SK-MEL-2, 48 h, read-out: GI
[21] = test system: HT-29; assay: Growth inhibition of human HT-29 cells at 10 uM incubated for 48 hrs by sulforhodamine B assay relative to control; type: functional; settings: HT-29, 48 h, read-out: GI
[22] = test system: TK-10; assay: Growth inhibition of human TK10 cells at 10 uM incubated for 48 hrs by sulforhodamine B assay relative to control; type: functional; settings: TK-10, 48 h, read-out: GI
[23] = test system: HCT-116; assay: Inhibition of clonogenicity in human HCT116 cells assessed as reduction in colony formation treated for 10 days by crystal violet staining; type: functional, cell-based
[24] = test system: KM12; assay: Growth inhibition of human KM12 cells at 10 uM incubated for 48 hrs by sulforhodamine B assay relative to control; type: functional; settings: KM12, 48 h, read-out: GI
[25] = test system: CCRF-CEM; assay: Growth inhibition of human CCRF-CEM cells at 10 uM incubated for 48 hrs by sulforhodamine B assay relative to control; type: functional; settings: read-out: GI
[26] = test system: SK-MEL-28; assay: Growth inhibition of human SK-MEL-28 cells at 10 uM incubated for 48 hrs by sulforhodamine B assay relative to control; type: functional; settings: SK-MEL-28, 48 h, read-out: GI
[27] = test system: COLO 205; assay: Growth inhibition of human COLO205 cells at 10 uM incubated for 48 hrs by sulforhodamine B assay relative to control; type: functional; settings: COLO 205, 48 h, read-out: GI

Ki [3]: 4.83 µM
SMILES: NS(=O)(=O)c1ccc(N/N=C2\C(=O)N(Cc3ccccc3)c3ccc(Cl)cc32)cc1
inhibition of growth at 10 µM [1]: 35% | inhibition of growth at 10 µM [2]: 16% | inhibition of growth at 10 µM [4]: 59% | inhibition of growth at 10 µM [5]: 55% | inhibition of growth at 10 µM [6]: 22% | inhibition of growth at 10 µM [7]: 17% | inhibition of growth at 10 µM [8]: 21% | inhibition of growth at 10 µM [9]: 34% | inhibition of growth at 10 µM [10]: 17% | inhibition of growth at 10 µM [11]: 52% | inhibition of growth at 10 µM [12]: 24% | inhibition of growth at 10 µM [13]: 11% | inhibition of growth at 10 µM [14]: 21% | inhibition of growth at 10 µM [15]: 19% | inhibition of growth at 10 µM [16]: 16%

Ki [3]: > 10 µM
SMILES: CCOC(=O)CN1C(=O)/C(=N\Nc2ccc(S(N)(=O)=O)cc2)c2cc(Br)ccc21
inhibition of growth at 10 µM [17]: 14% | inhibition of growth at 10 µM [2]: 27% | inhibition of growth at 10 µM [18]: 23% | inhibition of growth at 10 µM [5]: 57% | inhibition of growth at 10 µM [7]: 69% | inhibition of growth at 10 µM [19]: 17% | inhibition of growth at 10 µM [20]: 11% | inhibition of growth at 10 µM [21]: 36% | inhibition of growth at 10 µM [22]: 14% | inhibition [23]: Dose-dependent effect | inhibition of growth at 10 µM [12]: 33% | inhibition of growth at 10 µM [24]: 30% | inhibition of growth at 10 µM [13]: 15% | inhibition of growth at 10 µM [14]: 22% | inhibition of growth at 10 µM [25]: 47% | inhibition of growth at 10 µM [26]: 15% | inhibition of growth at 10 µM [27]: 42% | inhibition of growth at 10 µM [16]: 29%

Source: ChEMBL document CHEMBL4311999, “3-Hydrazinoisatin-based benzenesulfonamides as novel carbonic anhydrase inhibitors endowed with anticancer activity: Synthesis, in vitro biological evaluation and in silico insights” (Eur J Med Chem, 2019)
